Results on 3 compounds are retold here after patent US10633395B2, “Aryloxazolidinone antibiotic compounds” (Idorsia Pharmaceuticals Ltd., priority 2017, dated 2020).

As a reminder, the MIC is the lowest concentration that inhibits growth of the organism. A word on the IC50: it is the concentration at which inhibition is half-maximal.

The subject of one data set is wild-type E. coli A-1261. The experiment in a line: MIC against wild-type E. coli A-1261 with or without alkaline phosphatase or esterase (prodrug activation). It is filed as cell-based. The conditions noted are these: for MIC for E. coli A-1261 In the presence of an alkaline phosphatase (2 i.U./mL): alkaline phosphatase from bovine intestinal mucosa; for MIC for E. coli A-1261 In the presence of an esterase (10 i.U./mL): esterase from porcine liver; for MIC for E. coli A-1261 In the absence of alkaline phosphatase and esterase: no alkaline phosphatase, no esterase. The method, then: (§1) Bacterial growth minimal inhibitory concentrations: Minimal inhibitory concentrations (MICs; mg/L) were determined in cation-adjusted Mueller-Hinton Broth by a microdilution method following the description given in “Methods for Dilution Antimicrobial Susceptibility Tests for Bacteria that Grow Aerobically”, Approved standard, 7th ed., Clinical and Laboratory Standards Institute (CLSI) Document M7-A7, Wayne, Pa., USA (2006).
The compounds of Examples 2 and 3 of the present invention (inv.) were tested against wild-type E. coli A-1261 in the presence of alkaline phosphatase (from bovine intestinal mucosa: Sigma P6774-2KU; Lot: SLBB1168) or esterase (from porcine liver: Sigma E2884-5KU; Lot: 129K7010V), and in the absence of an alkaline phosphatase and esterase. The corresponding antibacterial test results are given in Table 2 hereafter (MICs in mg/L).

A further data set relates to E. coli ATCC25922. Briefly: Bacterial growth minimal inhibitory concentration (microdilution), E. coli ATCC25922. Type of data set: cell-based. The following applies: Escherichia coli, quinolone-sensitive strain, cation-adjusted Mueller-Hinton Broth. The protocol:
as §1
(§2) The compound of Example 1 according to the present invention (inv.) and reference compounds 4 (ref.) to 9 (ref.) were tested against several Gram-positive and Gram-negative bacteria. Staphylococcus aureus A798 is a multiply resistant strain (in particular quinolone-resistant), Klebsiella pneumoniae A-651 is a multiply resistant strain (in particular quinolone-resistant), while E. coli ATCC25922 and P. aeruginosa ATCC27853 are quinolone-sensitive strains. The corresponding antibacterial test results are given in Table 1 hereafter (MICs in mg/L).
(Broth dilution looks for growth in wells or tubes with falling amounts of substance.)

Data set [1] concerns Klebsiella pneumoniae A-651. The experiment in a line: Bacterial growth minimal inhibitory concentration (microdilution), K. pneumoniae A-651. The following applies: A651, multiply resistant (quinolone-resistant) strain, cation-adjusted Mueller-Hinton Broth. It is filed as cell-based. The protocol: as §1, §2
The next data set deals with P. aeruginosa ATCC27853. Briefly: Bacterial growth minimal inhibitory concentration (microdilution), P. aeruginosa ATCC27853. It is filed as cell-based. The conditions noted are these: Pseudomonas aeruginosa, quinolone-sensitive strain, cation-adjusted Mueller-Hinton Broth, read-out: MIC for P. aeruginosa AT0027853. The protocol:
as §1, §2

The next data set relates to CHO cells. The experiment in a line: Genetic toxicology: in vitro micronuclei formation in CHO cells. It is filed as cell-based, Chinese hamster. The following applies: 24 h treatment, ratio versus untreated cells. The method, then:
Genetic toxicology testing of compounds to assess their ability to cause DNA damage was done in vitro in mammalian cell assays (CHO cells). The formation of micronuclei, small DNA-staining particles outside of the nucleus, was investigated in mononucleated and binucleated cells treated with increasing concentrations of a test compound for 24 h. DNA was stained with Hoechst 33342 (Mutat Res. 630:1-13, 2007), read with a high-content screening microscope (Opera Phenix, Perkin Elmer) and scored with an optimized algorithm using Harmony. Micronucleii associated with valid cells were enumerated and induction of micronuclei formation tabulated as ratio versus untreated cells if the fraction of valid cells was ≥0.2.
Genetic toxicity potential of the compound of Example 1 according to the present invention (inv.) and reference compounds (ref.) was assessed and the corresponding test results are given in Table 3 hereafter.

The test system of data set [2] is Staphylococcus aureus A798. Briefly: Bacterial growth minimal inhibitory concentration (microdilution), S. aureus A798. The following applies: multiply resistant (quinolone-resistant) strain, cation-adjusted Mueller-Hinton Broth. Type of data set: cell-based. The method, then: as §1, §2
Data set [3] can be described thus: Metabolic stability: intrinsic clearance in human liver microsomes. Type of data set: in vitro ADME. The following applies: 1 μM compound, up to 45 minutes. The protocol:
Metabolic stability: Subcellular liver fractions and primary hepatocytes from different species were used to determine the in vitro intrinsic clearance of a compound in various species. The liver microsomal and hepatocytes in vitro half-life approach can be a suitable approach to measure intrinsic clearance in vitro, which can be scaled up to the in vivo situation and used in the prediction of human clearance (Obach et al., 1997). For this approach, […] were incubated for up to 45 minutes in subcellular liver fractions or 2 h in primary hepatocytes at final compound concentration of 1 μM. Disappearance of parent compound was determined by LC-MS analysis and intrinsic clearance calculated from the slope of compound disappearance thereof.
Metabolic stability of the compounds according to the present invention (inv.) and reference compounds (ref.) in human liver microsomes and inhibition of the human cytochrome P450 (CYP450) isoforms 3A4, 2C9 and 2D6 are given in Table 4 hereafter.
In general terms: Liver microsomes are vesicles of endoplasmic reticulum, rich in cytochrome P450 enzymes.

The subject of data set [4] is CYP3A4, CYP2C9 and CYP2D6 (lowest IC50 of the isoforms measured). Briefly: Cytochrome P450 inhibition in human liver microsomes. Type of data set: in vitro ADME. The conditions noted are these: lowest of isoforms 3A4, 2C9 and 2D6, 0-100 μM test compound, read-out: CYP450 lowest IC50 of the isoenzymes measured. The protocol:
Cytochrome P450 inhibition: The objective of this in vitro assay was to assess potential inhibition of the human cytochrome P450 (CYP450) isoforms 3A4, 2C9 and 2D6 using human liver microsomes and isoform-specific marker reactions. […] This may affect plasma levels in vivo and potentially lead to adverse drug reactions or toxicity. Technically, specific marker-substrate of P450 enzymes were incubated with human liver microsomes in the presence/absence of a test compounds. The inhibition effect of the test compound towards the marker reaction was determined in incubations containing 0-100 μM of the test compound. The inhibitory effect was determined by the impact of the different compound concentrations towards the metabolite formation of the marker reaction. Formation of the metabolites was determined by LC-MS analysis. Metabolic stability of the compounds according to the present invention (inv.) and reference compounds (ref.) in human liver microsomes and inhibition of the human cytochrome P450 (CYP450) isoforms 3A4, 2C9 and 2D6 are given in Table 4 hereafter.

≈ marks a conversion by molar mass, not a printed value.

Regarding `O=C1COc2ccc(N3C[C@H](CCCN(C(=O)OCOC(=O)CCc4ccccc4OP(=O)(O)O)[C@@H]4Cn5c(=O)ccc6cccc4c65)OC3=O)nc2N1` [Example 3], in the data set with wild-type E. coli A-1261, the “MIC for E. coli A-1261 In the presence of an alkaline phosphatase (2 i.U./mL)” value stood at 0.25 µg/mL; the “MIC for E. coli A-1261 In the presence of an esterase (10 i.U./mL)” value stood at 1 µg/mL; the “MIC for E. coli A-1261 In the absence of alkaline phosphatase and esterase” value is over 8 µg/mL.

`O=C1COc2ccc(N3C[C@H](CCCN(C(=O)OCOP(=O)(O)O)[C@@H]4Cn5c(=O)ccc6cccc4c65)OC3=O)nc2N1` [Example 2]: in the data set with wild-type E. coli A-1261, the “MIC for E. coli A-1261 In the presence of an alkaline phosphatase (2 i.U./mL)” value is 0.25 µg/mL; the “MIC for E. coli A-1261 In the presence of an esterase (10 i.U./mL)” value was over 8 µg/mL; the “MIC for E. coli A-1261 In the absence of alkaline phosphatase and esterase” value is over 8 µg/mL.

On to `O=C1COc2ccc(N3C[C@H](CCCN[C@@H]4Cn5c(=O)ccc6cccc4c65)OC3=O)nc2N1` [Example 1, (S)-1-{3-[(S)-2-oxo-3-(3-oxo-3,4-dihydro-2H-pyrido[3,2-b][1,4]oxazin-6-yl)-oxazolidin-5-yl]-propylamino}-1,2-dihydro-pyrrolo[3,2,1-ij]quinolin-4-one], for which the MIC was 0.25 µg/mL (≈ 0.542 µM) in the data set with E. coli ATCC25922, 0.5 µg/mL (≈ 1.08 µM) in data set [1], 1 µg/mL (≈ 2.17 µM) in the data set with P. aeruginosa ATCC27853 and 0.031 µg/mL (≈ 0.0672 µM) in data set [2]. For the same compound, the “Maximal induction of micronuclei formation normalized vs. background” value in the data set on CHO cells was determined as 2.5. Moreover, in data set [3], the “Intrinsic clearance in human liver microsomes” value is 15 μL/min * mg microsomal protein. In data set [4], the half-maximal inhibitory concentration (IC50) was over 50 µM.
